Where a name gives a salt, the structure may show the parent alone. Read-outs that look alike come from different tables or passages of the source.
Columns and labels:
cardiomyocytes [1] = assay: Multi-electrode assay (MEA) of cellular responses to adrenergic stimulation; type: cell-based, human; conditions: upon exposure
Description: To further characterize the functionality of the cardiomyocytes, single cell patch clamp and multi-electrode assay (MEA) were utilized to measure their action potential. 13.60% mimicked the nodal subtype, 22.20% mimicked the atrial subtype, and 64.20% mimicked the heart ventricle subtype (see FIG. 8(C)).
(§1) Cellular responses to adrenergic stimulation were also tested with MEA.

cardiomyocytes [2] = assay: Cell viability assay (ATP content) on hESC-derived cardiomyocytes; type: cell-based; conditions: Homo sapiens, Cardiomyocyte, read-out: EC50 (cell viability, ATP content)
Description: FIG. 12G is a graph showing ATP content (relative light units×1000) versus log concentration of valinomycin. The y-axis runs from 0 to 5 in increments of 1. The x-axis runs from −7 to −3 in increments of 1.
FIG. 12H is a graph showing ATP content (relative light units×1000) versus log concentration of emetine dihydrochloride. The y-axis runs from 0 to 6 in increments of 2. The x-axis runs from −8 to −3 in increments of 1.
as §1

CC(C)NCC(O)c1ccc(NS(C)(=O)=O)cc1 (stereo not shown) [Sotalol]
corrected field potential duration (cFPD) (cardiomyocytes [1]): shortened corrected field potential duration (cFPD)

CC[C@H]1CN2CCc3cc(OC)c(OC)cc3[C@@H]2C[C@@H]1C[C@H]1NCCc2cc(OC)c(OC)cc21 [emetine dihydrochloride]
EC50 (cardiomyocytes [2]; hESC-derived cardiomyocytes, FIG. 12G/12H): 6.08 µM

CC(C)NCC(O)c1ccc(O)c(O)c1 (stereo not shown) [isoproterenol]
heart rate (cardiomyocytes [1]): increased heart rate

CC(C)[C@@H]1NC(=O)[C@H](C)OC(=O)[C@@H](C(C)C)NC(=O)[C@@H](C(C)C)OC(=O)[C@H](C(C)C)NC(=O)[C@H](C)OC(=O)[C@@H](C(C)C)NC(=O)[C@@H](C(C)C)OC(=O)[C@H](C(C)C)NC(=O)[C@H](C)OC(=O)[C@@H](C(C)C)NC(=O)[C@@H](C(C)C)OC1=O [valinomycin]
EC50 (cardiomyocytes [2]): 13.1 µM
